Results: patent publication US4296032A (priority 1979, dated 1981)

What was measured:
Assay type in all cases: cell-based
Staph. aureus Russell = assay: MIC of ampicillin in the presence of the inhibitor, Staph. aureus Russell
Description: (§1) The MIC of ampicillin was determined in the presence of the pivaloyloxymethyl ester of 6-β-bromopenicillanic acid (inhibitor).

Klebsiella aerogenes E70 = assay: MIC of ampicillin in the presence of the inhibitor, Klebsiella aerogenes E70
Description: as §1

Proteus sp. C889 = assay: MIC of ampicillin in the presence of the inhibitor, Proteus sp. C889
Description: as §1

E. coli JT. 39 = assay: MIC of ampicillin in the presence of the inhibitor, E. coli JT. 39
Description: as §1

CC(C)(C)C(=O)OCOC(=O)[C@@H]1N2C(=O)[C@@H](Br)[C@H]2SC1(C)C [pivaloyloxymethyl 6β-bromopenicillanate]
MIC of Ampicillin (Staph. aureus Russell; inhibitor conc. 5 μg/ml): 3.1 µg/mL
MIC of Ampicillin (Staph. aureus Russell; inhibitor conc. 20 μg/ml): 0.78 µg/mL
MIC of Ampicillin (Klebsiella aerogenes E70; inhibitor conc. 5 μg/ml): 12.5 µg/mL
MIC of Ampicillin (Klebsiella aerogenes E70; inhibitor conc. 20 μg/ml): 6.2 µg/mL
MIC of Ampicillin (Proteus sp. C889; inhibitor conc. 5 μg/ml): 31 µg/mL
MIC of Ampicillin (Proteus sp. C889; inhibitor conc. 20 μg/ml): 8 µg/mL
MIC of Ampicillin (E. coli JT. 39; inhibitor conc. 5 μg/ml): 4 µg/mL
MIC of Ampicillin (E. coli JT. 39; inhibitor conc. 20 μg/ml): 2 µg/mL
